Reference: ChEMBL document CHEMBL1151118, “Plant antimutagenic agents, 2. Flavonoids” (J Nat Prod, 1988)

Experiments:
[1] = system: Salmonella typhimurium; test: Antimutagenic activity in Salmonella Typhimurium […] assessed as inhibition of 2-aminoanthracene-induced mutation at 150 ug/plate after 72 hrs in presence of Ames S-9 fraction; format: functional, Salmonella enterica subsp. enterica serovar Typhimurium
[2] = system: Salmonella typhimurium; test: Antimutagenic activity in Salmonella Typhimurium […] assessed as inhibition of benzo[a]pyrene-induced mutation at 300 ug/plate after 72 hrs in presence of Ames S-9 fraction; format: functional, Salmonella enterica subsp. enterica serovar Typhimurium
[3] = system: Salmonella typhimurium; test: Antimutagenic activity in Salmonella Typhimurium […] assessed as inhibition of benzo[a]pyrene-induced mutation at 600 ug/plate after 72 hrs in presence of Ames S-9 fraction; format: functional, Salmonella enterica subsp. enterica serovar Typhimurium
[4] = system: Salmonella typhimurium; test: Antimutagenic activity in Salmonella Typhimurium […] assessed as inhibition of 2-nitroflorene-induced mutation at 300 ug/plate after 72 hrs; format: functional, Salmonella enterica subsp. enterica serovar Typhimurium
[5] = system: Salmonella typhimurium; test: Antimutagenic activity in Salmonella Typhimurium […] assessed as inhibition of 2-aminoanthracene-induced mutation at 300 ug/plate after 72 hrs in presence of Ames S-9 fraction; format: functional, Salmonella enterica subsp. enterica serovar Typhimurium
[6] = system: Salmonella typhimurium; test: Antimutagenic activity in Salmonella Typhimurium […] assessed as inhibition of 2-nitroflorene-induced mutation at 600 ug/plate after 72 hrs; format: functional, Salmonella enterica subsp. enterica serovar Typhimurium
[7] = system: Salmonella typhimurium; test: Antimutagenic activity in Salmonella Typhimurium […] assessed as inhibition of 2-aminoanthracene-induced mutation at 600 ug/plate after 72 hrs in presence of Ames S-9 fraction; format: functional, Salmonella enterica subsp. enterica serovar Typhimurium
[8] = system: Salmonella typhimurium; test: Antimutagenic activity in Salmonella Typhimurium […] assessed as inhibition of 2-nitroflorene-induced mutation at 150 ug/plate after 72 hrs; format: functional, Salmonella enterica subsp. enterica serovar Typhimurium
[9] = system: Salmonella typhimurium; test: Antimutagenic activity in Salmonella Typhimurium […] assessed as inhibition of acetylaminofluorene-induced mutation at 300 ug/plate after 72 hrs in presence of Ames S-9 fraction; format: functional, Salmonella enterica subsp. enterica serovar Typhimurium
[10] = system: Salmonella typhimurium; test: Antimutagenic activity in Salmonella Typhimurium […] assessed as inhibition of acetylaminofluorene-induced mutation at 150 ug/plate after 72 hrs in presence of Ames S-9 fraction; format: functional, Salmonella enterica subsp. enterica serovar Typhimurium
[11] = system: Salmonella typhimurium; test: Antimutagenic activity in Salmonella Typhimurium […] assessed as inhibition of acetylaminofluorene-induced mutation at 600 ug/plate after 72 hrs in presence of Ames S-9 fraction; format: functional, Salmonella enterica subsp. enterica serovar Typhimurium
[12] = system: Salmonella typhimurium; test: Antimutagenic activity in Salmonella Typhimurium […] assessed as inhibition of benzo[a]pyrene-induced mutation at 150 ug/plate after 72 hrs in presence of Ames S-9 fraction; format: functional, Salmonella enterica subsp. enterica serovar Typhimurium
[13] = Toxicity in Salmonella Typhimurium […] at 600 ug/plate after 72 hrs by Ames assay in presence of Ames S-9 fraction; format: organism-based; conditions: salmonella enterica subsp. enterica serovar typhimurium, Salmonella Typhimurium T98 with S-9 fraction
[14] = Toxicity in Salmonella Typhimurium […] at 150 ug/plate after 72 hrs by Ames assay in presence of Ames S-9 fraction; format: organism-based; conditions: salmonella enterica subsp. enterica serovar typhimurium, Salmonella Typhimurium T98 with S-9 fraction
[15] = Toxicity in Salmonella Typhimurium […] at 300 ug/plate after 72 hrs by Ames assay in presence of Ames S-9 fraction; format: organism-based; conditions: salmonella enterica subsp. enterica serovar typhimurium, Salmonella Typhimurium T98 with S-9 fraction

| SMILES | inhibition (INH) [1] | inhibition (INH) [2] | inhibition (INH) [3] | inhibition (INH) [4] | inhibition (INH) [5] | inhibition (INH) [6] | inhibition (INH) [7] | inhibition (INH) [8] | inhibition (INH) [9] | inhibition (INH) [10] | inhibition (INH) [11] | inhibition (INH) [12] | inhibition at 72 h, 600 ug/plate [13] | inhibition at 72 h, 150 ug/plate [14] | inhibition at 72 h, 300 ug/plate [15] |
| --- | --- | --- | --- | --- | --- | --- | --- | --- | --- | --- | --- | --- | --- | --- | --- |
| O=c1cc(-c2ccc(O)cc2)oc2cc(O)cc(O)c12 [APIGENIN] | 0% | 64% | 75% | 70% | 0% | 88% | 10% | 60% | 14% | 0% | 0% | 67% | – | – | – |
| C=C[C@@](C)(/C=C/c1ccc(O)cc1)CCC=C(C)C [BAKUCHIOL] | 91% | 28% | 43% | 79% | 84% | 92% | 81% | 75% | 0% | 0% | 0% | 0% | < 30% | < 20% | < 20% |
| CC(C)=CCc1cc2c(cc1O)O[C@H](c1ccc(O)cc1)CC2=O [BAVACHIN] | 98% | 0% | – | 72% | 98% | – | 62% | 52% | 0% | 0% | – | 0% | – | < 20% | 50% |
| COc1ccc(-c2coc3cc(O)cc(O)c3c2=O)cc1 [BIOCHANIN] | – | – | – | – | – | – | 57% | – | – | – | – | – | < 20% | – | < 20% |
| COc1ccc(-c2coc3cc(O)ccc3c2=O)cc1 [FORMONONETIN] | – | – | – | – | – | – | 0% | – | – | – | – | – | – | – | – |
| O=c1c(O)c(-c2ccccc2)oc2cc(O)cc(O)c12 [GALANGIN] | – | – | – | – | – | – | 97% | – | – | – | – | – | – | – | – |
| COc1ccc([C@@H]2CC(=O)c3c(O)cc(O[C@@H]4O[C@H](CO[C@@H]5O[C@@H](C)[C@H](O)[C@@H](O)[C@H]5O)[C@@H](O)[C@H](O)[C@H]4O)cc3O2)cc1O [HESPERIDIN] | – | – | – | – | – | – | 13% | – | – | – | – | – | < 20% | – | < 20% |
| CC(C)=CCc1c(O)ccc(C(=O)/C=C/c2ccc(O)cc2)c1O [ISOBAVACHALCONE] | – | – | – | – | – | – | 86% | – | – | – | – | – | > 90% | – | > 90% |
| O=c1c(O)c(-c2ccc(O)cc2O)oc2cc(O)cc(O)c12 [MORIN] | – | – | – | – | – | – | 0% | – | – | – | – | – | < 30% | – | < 20% |
| C[C@@H]1O[C@@H](O[C@H]2[C@H](Oc3cc(O)c4c(c3)O[C@H](c3ccc(O)cc3)CC4=O)O[C@H](CO)[C@@H](O)[C@@H]2O)[C@H](O)[C@H](O)[C@H]1O [NARINGIN] | – | – | – | – | – | – | 38% | – | – | – | – | – | 50% | – | < 30% |
| CC(C)=CCc1cc(-c2coc3cc(O)ccc3c2=O)ccc1O [NEOBAVAISOFLAVONE] | 98% | 74% | 97% | 53% | 67% | 66% | 97% | 15% | 72% | 2% | 96% | 17% | > 90% | – | > 90% |
| COc1ccc(-c2cc(=O)c3c(OC)c(OC)c(OC)c(OC)c3o2)cc1OC [NOBILETIN] | – | – | – | – | – | – | 43% | – | – | – | – | – | < 20% | – | < 20% |
| O=c1c(O)c(-c2ccc(O)c(O)c2)oc2cc(O)cc(O)c12 [QUERCETIN] | 16% | 0% | 0% | 0% | 24% | 0% | 20% | 0% | 0% | 0% | 0% | 0% | 50% | – | 50% |
| COc1cc(O)c2c(=O)c(O)c(-c3ccc(O)c(O)c3)oc2c1 [RHAMNETIN] | 0% | 45% | – | 41% | 0% | – | 78% | 34% | 52% | 11% | – | 7% | – | – | – |
| C[C@@H]1O[C@@H](OC[C@H]2O[C@@H](Oc3c(-c4ccc(O)c(O)c4)oc4cc(O)cc(O)c4c3=O)[C@H](O)[C@@H](O)[C@@H]2O)[C@H](O)[C@H](O)[C@H]1O [RUTIN] | – | – | – | – | – | – | 0% | – | – | – | – | – | < 20% | – | < 20% |
| COc1ccc(-c2cc(=O)c3c(OC)c(OC)c(OC)c(OC)c3o2)cc1 [TANGERETIN] | – | – | – | – | – | – | 42% | – | – | – | – | – | 50% | – | < 20% |
